Test results as given in patent publication US20240382600A1, “BIFUNCTIONAL DEGRADERS COMPRISING A TEAD BINDER” (Novartis AG, priority 2021, published 2024).

Columns and labels:
[1] = system: NCI-H2052 Tet-On shYAP_2371 pLenti6 MCAT_Luc cells; test: Proliferation assay (resazurin/AlamarBlue), NCI-H2052; assay type: cell-based; details: Homo sapiens; NCI-H2052, 72 hours
[2] = system: YAP-dependent transcription in NCI-H2052 Tet-On shYAP_2371 pLenti6 MCAT_Luc cells; test: YAP reporter gene activity assay (MCAT-Luc), NCI-H2052; assay type: cell-based; details: Homo sapiens, 24 hrs
[3] = target: Avi-humanTEAD4^217-434 / Cy5 labeled humanYAP^60-100 (Homo sapiens (Human), UniProt Q15561); test: In-vitro biochemical TR-FRET assay (TEAD4/YAP); assay type: binding; details: 1 h at room temperature
Avi-humanTEAD4^217-434 / Cy5 labeled humanYAP^60-100, sequence (Q15561 217-434): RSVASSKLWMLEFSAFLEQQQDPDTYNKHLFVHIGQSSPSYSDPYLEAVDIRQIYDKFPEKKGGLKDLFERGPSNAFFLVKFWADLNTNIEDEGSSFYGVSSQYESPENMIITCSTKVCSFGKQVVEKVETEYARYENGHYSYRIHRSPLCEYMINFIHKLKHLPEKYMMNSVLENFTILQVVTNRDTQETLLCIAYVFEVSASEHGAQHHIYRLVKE

[4] = target: TEAD1-GFP in HEK293A cells (Homo sapiens (Human), UniProt P28347); test: TEAD1 protein abundance flow cytometry assay in HEK293A; assay type: cell-based; details: HEK293A TEAD1-GFP-CHYSEL-mCherry sensor cells, 24 h, GFP signal by flow cytometry
TEAD1-GFP in HEK293A cells, sequence (P28347 whole entry): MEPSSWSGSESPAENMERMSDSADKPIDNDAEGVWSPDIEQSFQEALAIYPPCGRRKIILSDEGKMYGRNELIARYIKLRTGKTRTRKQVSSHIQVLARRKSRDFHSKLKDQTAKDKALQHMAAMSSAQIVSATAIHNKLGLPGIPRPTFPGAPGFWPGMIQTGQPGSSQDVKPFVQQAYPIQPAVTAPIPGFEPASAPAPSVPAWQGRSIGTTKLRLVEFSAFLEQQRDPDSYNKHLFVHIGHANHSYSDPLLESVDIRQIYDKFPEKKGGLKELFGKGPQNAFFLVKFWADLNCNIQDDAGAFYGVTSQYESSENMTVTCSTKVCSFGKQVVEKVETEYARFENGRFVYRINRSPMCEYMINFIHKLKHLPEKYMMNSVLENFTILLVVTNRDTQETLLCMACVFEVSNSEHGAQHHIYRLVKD
How it was run: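 HEK293A stably expressing bicistronic TEAD1-GFP-CHYSEL-mCherry treated 24 h at 37° C with 10-point 3-fold series from 10 μM (0.1% DMSO), duplicate. Median GFP of 2,500 single cells by flow cytometry, normalized to parental HEK293A (0%) and DMSO (100%); DC50 from concentration-response curves.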

[5] = system: MKN-45/Ubc-luc cells (unspecific inhibition of luciferase expression or activity); test: Reporter gene assay specificity control (Ubc-Luc), MKN-45; assay type: cell-based; details: Homo sapiens; MKN-45/Ubc-luc specificity control, 24 hrs
How it was run: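 MKN-45 cells stably carrying a ubiquitin C promoter–firefly luciferase construct, treated the day after seeding with eleven 2-fold compound dilutions (0.1% DMSO final) for 24 hrs at 37° C. Luminescence read 5 min after Steady Glo addition; cell-free background subtracted, as a control for nonspecific luciferase inhibition.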

[6] = system: SF268-MCAT_Luc_dox-i-shYAPLevy (Clone 13) cells; test: Proliferation assay (resazurin/AlamarBlue), SF268; assay type: cell-based; details: Homo sapiens, SF-268; SF268, 72 hours
[7] = system: YAP-dependent transcription in SF268-MCAT_Luc_dox-i-shYAPLevy (Clone 13) cells; test: YAP reporter gene activity assay (MCAT-Luc), SF268; assay type: cell-based; details: Homo sapiens, SF-268; SF268 MCAT_Luc, 24 hrs
MKN-45/Ubc-luc cells = test: Proliferation assay (resazurin/AlamarBlue), MKN-45; assay type: cell-based; details: Homo sapiens; MKN-45, 72 hours
How it was run: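 MKN-45 cells carrying constitutive Ubc-driven luciferase reporter, treated the day after seeding with eleven 2-fold dilutions (0.1% DMSO) for 72 h at 37 °C. Viability by resazurin, referenced to day-0 plate; GI50 from % growth (100 none, 0 stasis, −100 kill) and residual viability at top concentration.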

GI50 [1]: 12 nM | IC50 [2]: 4.6 nM | IC50 [3]: 2.1 nM | DC50 [4]: 0.5 nM | IC50 [5]: > 2000 nM | IC50 [7]: 0.41 nM | GI50 (MKN-45/Ubc-luc cells): > 2000 nM
SMILES: COc1ccc(C(N)=O)c(-c2c(Cl)c(F)cc3c2[C@H](C)[C@@](CN[C@H]2CC[C@H](C(=O)N4CCC(C5CCN(C(=O)COc6ccc(C)c(N7CCC(=O)NC7=O)c6)CC5)CC4)CC2)(c2ccccc2)O3)c1F (atropisomer, axis not shown) [Example 19, 2-((2S,3S,4S)-5-chloro-2-((((1r,4S)-4-(1′-(2-(3-(2,4-dioxotetrahydropyrimidin-1(2H)-yl)-4-methylphenoxy)acetyl)-[4,4′-bipiperidine]-1-carbonyl)cyclohexyl)amino)methyl)-6-fluoro-3-methyl-2-phenyl-2,3-dihydrobenzofuran-4-yl)-3-fluoro-4-methoxybenzamide]
GI50 [6]: 29 nM
